Test results taken from patent US20080058274A1, “Combination Therapy” (priority 2004, published 2008).
Counter-ions that a name gives are not always drawn. Like-named read-outs stand apart in the source and are kept apart here.

Columns and labels:
[1] = tested on: doxorubicin-resistant human breast carcinoma M-109 cell line; assay: Cytotoxicity, methylene blue (MB) staining assay; format: cell-based; details: M-109 doxorubicin-resistant cells
Description: Cytotoxicity studies: The cytotoxicity of C6Cer-DXN-SSL against doxorubicin-resistant human breast carcinoma M-109 cell line was tested by the methylene blue (MB) staining assay [Gorodetsky, R. et al. Int. J. Cancer. 75:635-642 (1998)]. A known number of exponentially growing cells in 200 μL of medium were plated in 96-microwell, flat-bottomed plates. For each of the variants tested, 4 wells were used. Following 24 hr of incubation in culture, different concentrations of drugs or formulations were added to each well containing untreated cells.
Cells were exposed to drugs for 96 hr. […] The MB bound to the fixed cells was extracted by incubation at 37° C. with 200 μL of 0.1 N HCl for 1 h, and the net optical density of the dye in each well was determined by a plate spectrophotometer (Labsystems Multyskan Bichromatic, Finland) at 620 nm.
Statistical analysis: Median survival times and the statistical significance of differences in survival curves were calculated by means of the log-rank test using Prism Software (GraphPad, San Diego, Calif.). […] For assessment of synergy, the combination index (CI) was determined by median effect analysis [Chow T C, Talalay P. Quantitative analysis of dose-effect relationships: the combined effects of multiple drugs or enzyme inhibitors. […]

C-26 colon carcinomas = assay: In vivo antitumor efficacy, mice inoculated i.p. with C-26 colon carcinoma; parameters: species or system BALB/c mice; details: i.v. treatment, DXN 8 mg/kg
Description: In vivo evaluation of antitumor efficacy of Liposomal DXN: All the experimental procedures which make use of animals (mice) were done in accordance with the standards required by the Institutional Animal Care and Use Committee of the Hebrew University and Hadassah Medical Organization and approved by the Committee.
To test therapeutic efficacy, female BALB/c mice (in the weight range of 16-20 g) were injected i.p. with 1*10^6 C-26 colon carcinomas. The viability of these cells was >90% by trypan blue exclusion. Therapeutic efficacy of i.v. injected SSL (DXN-C6Cer-SSL) containing both DXN in intraliposome aqueous phase (DXN/PL ratio of 0.2) and 11.5 mole % of C6Cer in comparison to Doxil (alone) and free DXN was studied. In all 3 treatments DXN dose was 0.16 mg/mouse (8 mg/kg) and dose of C6Cer injected into mice treated with DXN-C6Cer-SSL was 0.25 mg.mouse (12.5 mg/kg). Intravenous treatment began at day 4 after tumor cell inoculation and was repeated three times at 5-days intervals. The median survival and percentage increase in life span of treated (T) over control (C) animals (Tx100/C)-100 were calculated.
Statistical analysis: Median survival times and the statistical significance of differences in survival curves were calculated by means of the log-rank test using Prism Software (GraphPad, San Diego, Calif.). Differences were considered significant at P<0.05.

[2] = Doxorubicin pharmacokinetics and biodistribution in tumor-bearing mice; format: in vivo, BALB/c mice
Description: Pharmacokinetics and biodistribution studies in tumor-bearing mice: Eight to 10-week-old BALB/c female mice, obtained through the Animal Breeding House of the Hebrew University (Jerusalem, Israel), were housed at Hadassah Medical Center at a specific pathogen free (SPF) facility with food and water ad libitum. Each mouse was injected with one inoculum of tumor cells (1×10^6 murine C-26 cells) subcutaneously into the left flank. 7 days later SSL formulations containing both DXN (0.16 mg/mouse) and C6Cer, (0.25 mg/mouse), Doxil (0.16 mg/mouse) and free DXN (0.16 mg/mouse) were injected i.v. At 1, 4, 24 and 48 hr after injection, the animals were anesthetized with 4% chloral hydrate (Fluka, USA), bled by eye inoculation, and plasma was separated from blood cells by 5 min centrifugation at 5,000 rpm. Various organs (liver, heart, lungs, kidneys) and tumor were removed. Each time period in each treated group consisted of 3 mice. Samples were frozen at −80° C. until assayed. Thereafter, plasma samples were diluted in 90% isopropanol containing 10% 0.75N HCl in order to dissolve all liposome's lipids and release the DXN to the solution, and concentration of DXN was determined according to a standard calibration curve of DXN (excitation at 485±10 mu and emission at 590±10 nm) from fluorescence intensity using Synergy HT plate reader in its fluorescence mode (Bio-Tek, Vermont, USA).
Doxorubicin pharmacokinetics and biodistribution studies in tumor-bearing mice: BALB/c female mice were injected with one inoculum of tumor cells (1×10^6 C-26 cells) subcutaneously into the left flank. Seven days later, liposomal formulations containing both DXN and C6Cer [HSPC:^2kPEG-DSPE:Chol:C6Cer (76:7.5:5:11.5)-DXN]; Doxil or Free DXN were injected i.v., and bled by eye inoculation, plasma was isolated and 50 μl was taken from plasma for further analysis. DXN levels were determined after “extraction” of plasma with acidic isopropanol as described in Methods.

## COc1cccc2c1C(=O)c1c(O)c3c(c(O)c1C2=O)C[C@@](O)(C(=O)CO)C[C@@H]3O[C@H]1C[C@H](N)[C@H](O)[C@H](C)O1 [free DXN, 8S,10S)-10-[(3-amino-2,3,6-trideoxy-a-L-lyxo-hexopyranosyl)oxy]-8-glycolyl-7,8,9,10-tetrahydro-6,8,11-trihydroxy-1-methoxy-5,12-naphthacenedione hydrochloride]
[1]; M109, agent given alone, 96 hr exposure, read-out: IC50
  IC50: 2200 nM
[1]; M109, combined with liposomal C6Cer at its IC10, 96 hr, read-out: IC50 of DXN in the presence of IC10 concentration of liposomal C6Cer
  IC50: 900 nM
C-26 colon carcinomas; FIG. 3
  survival 80 days after treatment initialization: 0%
C-26 colon carcinomas; untreated 16 day
  median survival: 35 days
[2]; 1 hr post-injection, i.v. 0.16 mg DXN/mouse, FIG. 4A
  DXN remaining in plasma: 3%
[2]; 4 hr post-treatment, i.v., FIG. 4B
  DXN level in heart tissue: 5.7%
[2]; 24 hr post-injection (maximum), i.v., s.c. C-26 tumor, FIG. 4B
  DXN level in tumor tissue: 1%
[2]; plasma, 48 hr post-injection, i.v. 0.16 mg DXN/mouse, FIG. 4A
  DXN remaining in circulation: below detection
